Assay results from US20130071854A1, “METHODS FOR THE IDENTIFICATION AND CHARACTERIZATION OF HDAC INTERACTING COMPOUNDS” (priority 2009, published 2013).
Where two headings read alike, the source gives them in different places.

Tests used:
ALDH2 = target: T1, ALDH2 (Homo sapiens, UniProt P05091); experiment: Competition binding assay in cell lysate, affinity matrix, MS; conditions: ALDH2, read-out: IC50
T1 construct: endogenous in cells
T1 sequence (P05091 18-517): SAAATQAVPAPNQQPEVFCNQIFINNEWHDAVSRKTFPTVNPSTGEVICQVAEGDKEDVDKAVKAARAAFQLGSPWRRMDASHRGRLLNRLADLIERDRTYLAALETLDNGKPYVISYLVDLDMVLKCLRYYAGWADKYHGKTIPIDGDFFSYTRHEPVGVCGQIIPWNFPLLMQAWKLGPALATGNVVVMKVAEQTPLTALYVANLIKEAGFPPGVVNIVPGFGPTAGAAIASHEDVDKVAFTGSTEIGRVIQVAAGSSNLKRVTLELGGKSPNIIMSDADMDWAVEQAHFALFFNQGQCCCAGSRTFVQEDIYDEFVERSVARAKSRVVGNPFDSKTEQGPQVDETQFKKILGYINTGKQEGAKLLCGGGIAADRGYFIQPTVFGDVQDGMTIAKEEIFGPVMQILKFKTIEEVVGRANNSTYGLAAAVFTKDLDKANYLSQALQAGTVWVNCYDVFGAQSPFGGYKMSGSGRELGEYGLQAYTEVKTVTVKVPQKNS

BZW2 = target: T2, BZW2 (Homo sapiens, UniProt Q9Y6E2); experiment: as above; conditions: BZW2, read-out: IC50
T2 construct: endogenous in cells
T2 sequence (Q9Y6E2 1-419): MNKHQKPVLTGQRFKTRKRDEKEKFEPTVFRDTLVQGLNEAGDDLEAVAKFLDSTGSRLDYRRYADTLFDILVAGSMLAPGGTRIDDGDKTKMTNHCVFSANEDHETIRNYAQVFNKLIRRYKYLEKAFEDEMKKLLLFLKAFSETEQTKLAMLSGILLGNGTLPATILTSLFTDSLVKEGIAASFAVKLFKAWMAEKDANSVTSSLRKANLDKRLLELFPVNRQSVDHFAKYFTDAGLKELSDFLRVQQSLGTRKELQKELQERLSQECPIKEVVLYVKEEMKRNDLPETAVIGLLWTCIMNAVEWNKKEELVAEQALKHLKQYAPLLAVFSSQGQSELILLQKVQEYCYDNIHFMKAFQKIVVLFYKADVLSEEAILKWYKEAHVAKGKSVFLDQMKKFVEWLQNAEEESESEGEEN

HSPD1 = target: T3, HSPD1 (Homo sapiens, UniProt P10809); experiment: as above; conditions: HSPD1, read-out: IC50
T3 construct: endogenous in cells

ISOC1 = target: T4, ISOC1 (Homo sapiens, UniProt Q96CN7); experiment: as above; conditions: ISOC1, read-out: IC50
T4 construct: endogenous in cells
T4 sequence (Q96CN7 1-298): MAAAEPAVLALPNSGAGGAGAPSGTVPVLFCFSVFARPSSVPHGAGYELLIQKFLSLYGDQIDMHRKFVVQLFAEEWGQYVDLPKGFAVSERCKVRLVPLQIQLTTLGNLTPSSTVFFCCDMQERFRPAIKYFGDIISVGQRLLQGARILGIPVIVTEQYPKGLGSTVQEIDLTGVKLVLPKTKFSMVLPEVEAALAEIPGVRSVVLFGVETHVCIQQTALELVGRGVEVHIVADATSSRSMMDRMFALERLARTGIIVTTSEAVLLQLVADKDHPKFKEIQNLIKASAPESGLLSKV

ISOC2 = target: T5, ISOC2 (Homo sapiens, UniProt Q96AB3); experiment: as above; conditions: ISOC2; K-562 cell lysate
T5 construct: endogenous in cells

PPP4C = target: T6, PPP4C (Homo sapiens, UniProt P60510); experiment: as above; conditions: PPP4C, read-out: IC50
T6 construct: endogenous in cells
T6 sequence (P60510 1-307): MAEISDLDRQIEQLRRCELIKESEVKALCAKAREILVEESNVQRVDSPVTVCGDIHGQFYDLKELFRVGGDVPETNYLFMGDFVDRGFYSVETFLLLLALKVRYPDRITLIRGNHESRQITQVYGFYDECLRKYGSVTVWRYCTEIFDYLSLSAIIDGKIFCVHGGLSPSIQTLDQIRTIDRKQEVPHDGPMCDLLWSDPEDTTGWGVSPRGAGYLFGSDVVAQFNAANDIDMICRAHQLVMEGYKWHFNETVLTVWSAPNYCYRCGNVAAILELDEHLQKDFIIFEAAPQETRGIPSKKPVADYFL

MTA1 = experiment: Competition binding assay in cell lysate, affinity matrix, MS (Mi-2/NuRD interactor); set-up: species or system human; conditions: Molt-4 cell lysate
WDR5 = target: T7, WDR5 (Homo sapiens, UniProt P61964); experiment: Competition binding assay in cell lysate, affinity matrix, MS; conditions: WDR5; K-562 cell lysate
T7 construct: endogenous in cells

CoREST complex = experiment: Chemoproteomic binding profiling, K562 cell extract, SAHA/ITF2357 probe matrix (Kd app); set-up: species or system human; conditions: read-out: Kd^app GSE1
NuRD complex = experiment: as above; set-up: species or system human
Sin3 complex = experiment: as above; set-up: species or system human
[1] = tested on: histone acetylation, K562 cells; experiment: Mapping of histone acetylation by LC-MS/MS of K562 cells treated with HDACi; type: cell-based, human; conditions: K562 cells treated 6 hours, isobaric tagging and MS/MS
TBL1X = conditions: K-562 cell lysate
GPS2 = conditions: Molt-4 cell lysate
DNTTIP1 = experiment: Competition binding assay in cell lysate, affinity matrix, MS; conditions: K-562 cell lysate
GATAD2A = experiment: Competition binding assay in cell lysate, affinity matrix, MS (Mi-2/NuRD interactor)
GATAD2B = experiment: as above
MBD3 = experiment: as above
MTA2 = experiment: as above
MTA3 = experiment: as above; conditions: K-562 cell lysate
RBBP7 = experiment: Competition binding assay in cell lysate, affinity matrix, MS (Sin3/Mi2-NuRD interactor)

T3 sequence (P10809 27-573): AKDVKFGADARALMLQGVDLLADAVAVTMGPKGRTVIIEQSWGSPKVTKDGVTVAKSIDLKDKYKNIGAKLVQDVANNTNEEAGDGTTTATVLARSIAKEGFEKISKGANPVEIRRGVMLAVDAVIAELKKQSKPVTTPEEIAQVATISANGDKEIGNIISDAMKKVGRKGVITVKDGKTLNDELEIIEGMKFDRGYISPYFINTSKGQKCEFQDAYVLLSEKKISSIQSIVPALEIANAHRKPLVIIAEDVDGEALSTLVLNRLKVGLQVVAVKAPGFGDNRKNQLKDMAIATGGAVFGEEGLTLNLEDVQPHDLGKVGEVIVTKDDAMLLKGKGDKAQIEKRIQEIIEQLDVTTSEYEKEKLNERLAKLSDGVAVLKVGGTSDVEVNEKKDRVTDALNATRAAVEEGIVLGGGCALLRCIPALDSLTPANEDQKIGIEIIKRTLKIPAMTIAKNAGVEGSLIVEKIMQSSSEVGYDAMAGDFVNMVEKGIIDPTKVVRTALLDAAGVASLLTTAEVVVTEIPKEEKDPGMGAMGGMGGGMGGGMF
T5 sequence (Q96AB3 whole entry): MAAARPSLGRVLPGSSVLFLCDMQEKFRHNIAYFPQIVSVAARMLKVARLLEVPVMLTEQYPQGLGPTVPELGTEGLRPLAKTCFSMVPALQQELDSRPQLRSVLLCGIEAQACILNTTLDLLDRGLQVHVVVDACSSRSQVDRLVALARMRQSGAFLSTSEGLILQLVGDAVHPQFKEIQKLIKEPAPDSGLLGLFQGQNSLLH

Q: `CC(/C=C/C(=O)NO)=C\[C@@H](C)C(=O)c1ccc(N(C)C)cc1` [Trichostatin A] was tested. Which IC50 (ALDH2; K-562 cell lysate) did it give?
A: The IC50 was 3 µM.

Q: And the IC50 (ALDH2; Molt-4 cell lysate)?
A: Its IC50 is 3 µM.

Q: What about the IC50 (BZW2; K-562 cell lysate) of the same molecule?
A: The IC50 was 2.79 µM.

Q: And the IC50 (BZW2; Molt-4 cell lysate)?
A: The IC50 was 2.45 µM.

Q: What about the IC50 (HSPD1; K-562 cell lysate) of the same molecule?
A: The IC50 was 3 µM.

Q: And the IC50 (HSPD1; Molt-4 cell lysate)?
A: The IC50 was 3 µM.

Q: And the IC50 (ISOC1; K-562 cell lysate)?
A: The IC50 was 3 µM.

Q: And the IC50 (ISOC1; Molt-4 cell lysate)?
A: Its IC50 is 3 µM.

Q: What about the IC50 (ISOC2) of the same molecule?
A: The IC50 was 3 µM.

Q: What about the IC50 (PPP4C; K-562 cell lysate) of the same molecule?
A: The IC50 was 3 µM.

Q: And the IC50 (PPP4C; Molt-4 cell lysate)?
A: The IC50 was 3 µM.

Q: And the IC50 (MTA1)?
A: Its IC50 is 0.06 µM.

Q: What about the IC50 (WDR5) of the same molecule?
A: Its IC50 is 0.42 µM.

Q: What about the Kd (CoREST complex) of the same molecule?
A: Its Kd is 0.004 µM.

Q: And the Kd (NuRD complex; read-out: Kd^app CHD4)?
A: Its Kd is 0.06 µM.

Q: And the Kd (NuRD complex; read-out: Kd^app GATAD2B)?
A: The Kd was 0.03 µM.

Q: What about the Kd (NuRD complex; read-out: Kd^app MTA1) of the same molecule?
A: Its Kd is 0.12 µM.

Q: What about the Kd (Sin3 complex; protein SAP30, read-out: Kd^app SAP30) of the same molecule?
A: The Kd was 0.03 µM.

Q: What about the Kd (Sin3 complex; protein SIN3A, read-out: Kd^app SIN3A) of the same molecule?
A: Its Kd is 0.03 µM.

Q: What about the Kd (Sin3 complex; protein SIN3B, read-out: Kd^app SIN3B) of the same molecule?
A: Its Kd is 0.03 µM.

Q: And the “abundance of acetylated histone peptides (in words)” value [1]?
A: The value was “pronounced abundance of hyperacetylated histone peptides”.

Q: What about the IC50 (TBL1X) of the same molecule?
A: Its IC50 is 0.05 µM.

Q: What about the IC50 (TBL1XR1; K-562 cell lysate) of the same molecule?
A: The IC50 was 0.07 µM.

Q: What about the IC50 (TBL1XR1; Molt-4 cell lysate) of the same molecule?
A: The IC50 was 0.07 µM.

Q: And the IC50 (GPS2)?
A: The IC50 was 0.1 µM.

Q: And the IC50 (DNTTIP1)?
A: Its IC50 is 0.05 µM.

Q: What about the IC50 (GATAD2A; K-562 cell lysate) of the same molecule?
A: The IC50 was 0.06 µM.

Q: What about the IC50 (GATAD2A; Molt-4 cell lysate) of the same molecule?
A: Its IC50 is 0.04 µM.

Q: What about the IC50 (GATAD2B; K-562 cell lysate) of the same molecule?
A: Its IC50 is 0.06 µM.

Q: What about the IC50 (GATAD2B; Molt-4 cell lysate) of the same molecule?
A: The IC50 was 0.06 µM.

Q: What about the IC50 (MBD3; K-562 cell lysate) of the same molecule?
A: Its IC50 is 0.05 µM.

Q: And the IC50 (MBD3; Molt-4 cell lysate)?
A: The IC50 was 0.04 µM.

Q: What about the IC50 (MTA2; K-562 cell lysate) of the same molecule?
A: Its IC50 is 0.07 µM.

Q: And the IC50 (MTA2; Molt-4 cell lysate)?
A: Its IC50 is 0.06 µM.

Q: And the IC50 (MTA3)?
A: Its IC50 is 0.06 µM.

Q: And the IC50 (RBBP7; K-562 cell lysate)?
A: The IC50 was 0.18 µM.

Q: And the IC50 (RBBP7; Molt-4 cell lysate)?
A: The IC50 was 0.12 µM.
